In patent US8778627B2, “Enzyme substrate comprising a functional dye and associated technology and methods” (Biotium, Inc., priority 2006, dated 2014):

Assays:
calf thymus dsDNA = experiment: DNA titration of nucleic acid dye-based substrates and controls; format: binding; conditions: 1 μM in pH 7.4 TE buffer, 30-minute incubation at room temperature, excitation 485 nm, emission 530 nm
Method: In this example, nucleic acid dye-based caspase-3 substrates, Substrate No. 19 and Substrate No. 20, and respective control compounds, Compound No. 7 and Compound No. 24, were titrated with varying amounts of calf thymus dsDNA and the fluorescence signals of the solutions were recorded. Briefly, the substrates and the respective controls were prepared as generally described above in relation to Example 51. Multiple wells of a 96-well plate were loaded with the substrate (100 μL, 1 μM) or the respective control (100 μL, 1 μM). Each well was then titrated with 5 μL of one of the seven DNA stock solutions of 2.1, 4.1, 8.2, 16.4, 32.8 65.6 and 127.5 μg/mL concentration, respectively, in pH 7.4 TE buffer. After a 30-minute incubation at room temperature, the fluorescence reading of each well was recorded with a SpectraMax Germini XS fluorescence microplate reader (Molecular Devices Corp., Sunnyvale, Calif.), with the excitation wavelength and the emission collection wavelength set at 485 nm and 530 nm, respectively.
DNA titrations of Compound No. 21, a nucleic acid dye-based HDAC substrate, and Compound No. 23, a control associated with Compound No. 21, were titrated with varying amounts of calf thymus dsDNA in the manner generally described above in relation to Example 52.

calf thymus DNA = experiment: Measurement of fluorescence spectra in the presence of DNA; format: binding; conditions: 1 μM in pH 7.4 TE buffer, excess calf thymus DNA, excitation 600 nm, FIG. 1
Method: Stock solutions of nucleic acid dye-based substrates and respective control compounds were prepared by dissolving each compound in DMSO at 1 mg/mL concentration. The stock solutions were diluted into a pH 7.4 buffer (TE buffer) comprising Tris (10 mM), EDTA (1 mM) and NaCl (50 mM) to give a final concentration of 1 μM. Dye solutions containing an excess amount of DNA were prepared by adding a sufficient amount of calf thymus DNA calculated to yield a ratio of greater to or equal to 50 DNA base pairs per dye molecule. A fluorescence spectrum for each dye was recorded before and after the addition of DNA using a Jasco F-750 fluorescence spectrophotometer, with the fluorescence excitation wavelength set at λA-25 nm or 600 nm, where λA is the absorption maximum for each dye in the presence or the absence of DNA, and emission collection wavelength set at 660 nm.

[1] = molecular target: T1, caspase-3 activity in Jurkat cells (Homo sapiens, UniProt P42574); experiment: Detection of caspase-3 activity in live cells by flow cytometry; format: cell-based; conditions: for caspase-3-positive cell identification: Jurkat cells, substrate 10 μM for 15 minutes, FL1 channel
T1 construct: A flask of Jurkat cells were induced with staurosporine (1 μM) for apoptosis; endogenous in cells; host or cells: Jurkat cells induced with staurosporine
T1 sequence (P42574 29-175 limits assumed): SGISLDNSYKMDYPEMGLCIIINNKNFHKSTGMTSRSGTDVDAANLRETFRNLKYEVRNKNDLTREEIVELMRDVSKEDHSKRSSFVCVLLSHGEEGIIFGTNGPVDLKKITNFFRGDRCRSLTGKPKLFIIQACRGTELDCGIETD
T1 sequence (P42574 176-277 limits assumed): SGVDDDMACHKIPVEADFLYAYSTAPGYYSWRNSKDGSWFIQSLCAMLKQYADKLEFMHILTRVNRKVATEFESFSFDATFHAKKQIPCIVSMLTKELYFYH
Method: In this example, Jurkat cells were used to test whether Substrate No. 19 may be used to detect caspase-3 activity, or a lack thereof, within live cells by generating a nucleic acid dye that forms fluorescence upon binding to DNA. A flask of Jurkat cells were induced with staurosporine (1 μM) for apoptosis. Aliquots of the induced Jurkat cells were taken at 1 hour, 2.5 hours and 5 hours after induction, respectively, and aliquots of uninduced Jurkat cells, which served as negative controls, were taken at the same times. Substrate No. 19 was added to each Jurkat cell culture medium to give a final concentration of 10 μM and each resulting medium was allowed to incubate for 15 minutes before undergoing flow cytometry analysis using the FL1 channel for green fluorescence. […] For example, a stimulation time of 1 hour, 2.5 hours and 5 hours was associated with a 10%, 80% and 97% caspase-3-positive cell identification, respectively, as may be seen in the representations B, C and D of FIG. 4, respectively. One hour of staurosporine induction was required for Substrate No. 19 to reliably detect the presence of caspase-3-positive cells. Detection of intracellular caspase-3 activity via Substrate No. 19 is possible after only 15 minutes of incubation time, without necessitating cell destruction. Thus, it may be possible to continuously monitor enzymatic activity over more or less the entire course of cellular life via an enzyme substrate such as Substrate No. 19.

[2] = molecular target: T1, caspase-3 activity in Jurkat cells; experiment: Detection of caspase-3 activity in live cells by fluorescence microscopy; format: cell-based; conditions: Jurkat cells induced 4 hours with staurosporine (1 μM), substrate 10 μM for 15 minutes, confocal microscope, FIG. 5
Method: (§1) Substrate No. 19 (10 μM) was incubated for 15 minutes with Jurkat cells that had been induced for 4 hours with staurosporine (1 μM). Separately, Substrate No. 19 (10 μM) was incubated for 15 minutes with uninduced Jurkat cells, which served as a negative control. For each of the cell cultures, cells (1×10^5) were taken, pelleted and then resuspended in Annexin V binding buffer (100 μL; HEPES buffer (10 mM, pH 7.4), NaCl (140 mM) and CaCl2 (2.5 mM)) in a tube, whereupon Texas Red-conjugated Annexin V (5 μL, 50 μg/mL) (Biotium Inc., Hayward, Calif.) was added to each tube. After 15 minutes of incubation at room temperature, a cell culture (5 μL) of the induced cells or the uninduced cells was spotted onto a slide, which was then mounted with a coverslip and sealed with nail polish. The cells were examined with a 510 Meta UV/Vis confocal microscope. […] The green fluorescence is indicative of nuclear DNA staining by the nucleic acid dye that is formed from substrate cleavage via caspase-3. The red fluorescence is indicative of the staining of phosphatidylserine (PS) by the Texas Red-conjugated Annexin V, a fluorescent stain that is used to identify apoptotic cells.

caspase-3 = molecular target: T2, caspase-3 (Homo sapiens, UniProt P42574); experiment: In vitro enzymatic assay for nucleic acid dye-based substrates for caspase-3; format: biochemical; conditions: 10 μM, caspase-3 0.1 unit/mL, salmon sperm dsDNA 3.3 μg/mL, excitation 485 nm, emission 530 nm, FIG. 3
T2 construct: purchased Biovision Inc., Mountain View, Calif
T2 sequence (P42574 29-175 limits assumed): T1 sequence (P42574 29-175 limits assumed)
T2 sequence (P42574 176-277 limits assumed): T1 sequence (P42574 176-277 limits assumed)
Method: In this example, nucleic acid dye-based caspase-3 substrates were assayed in the presence of caspase-3 and dsDNA by monitoring the fluorescence increase. In one example, Substrate No. 19 (10 μM) was incubated with caspase-3 (0.1 unit/mL) (Biovision Inc., Mountain View, Calif.) and salmon sperm dsDNA (3.3 μg/mL) in a caspase assay buffer (100 μL; HEPES buffer (50 mM, pH 7.4), NaCl (100 mM), EDTA (1 mM), CHAPS (0.1%), DTT (10 mM), PMSF (1 mM) and glycerol (10%)) in a well of a black 96-well plate. The plate was then placed in a SpectraMax Germini XS fluorescence microplate reader (Molecular Devices Corp., Sunnyvale, Calif.), with the excitation wavelength set at 485 nm and emission collection wavelength set at 530 nm, to measure the fluorescence signal over time, as shown in FIG. 3.

phosphatidylserine (PS) = experiment: Texas Red-Annexin V staining of apoptotic Jurkat cells by confocal microscopy; format: cell-based; conditions: Jurkat cells induced 4 hours with staurosporine (1 μM), 15 minutes of incubation at room temperature, confocal microscope, FIG. 5
Method: as §1

C[n+]1c(C=C2C=CN(CCCCCC(=O)NCCN)c3ccccc32)sc2ccccc21 [Compound No. 7]
fluorescence response to dsDNA concentration (DNA titration) (calf thymus dsDNA): fluorescently responsive to the amount of DNA present

CC(=O)NCCCCC(NC(=O)OC(C)(C)C)C(=O)NCCNC(=O)CCCCCN1C=C/C(=C\c2sc3ccccc3[n+]2C)c2ccccc21.[I-] (stereo not drawn) [Compound No. 21]
fluorescence response to dsDNA concentration (DNA titration) (calf thymus dsDNA): relatively insensitive to the presence of DNA

C[n+]1c(/C=C2\C=CN(CCCCCC(=O)NCCNC(=O)C(CCCCN)NC(=O)OC(C)(C)C)c3ccccc32)sc2ccccc21.[I-] (stereo not drawn) [Compound No. 23]
fluorescence response to dsDNA concentration (DNA titration) (calf thymus dsDNA): fluorescently responsive to the amount of DNA present

C[n+]1c(/C=C/C=C2\C=CN(CCCC(=O)NCCN)c3ccccc32)sc2ccccc21 [Compound No. 24]
fluorescence emission in the presence of DNA, control versus substrate (calf thymus DNA): substantially more fluorescent than Substrate No. 20 | fluorescence response to dsDNA concentration (DNA titration) (calf thymus dsDNA): fluorescently responsive to the amount of DNA present

CC(=O)N[C@@H](CC(=O)O)C(=O)N[C@@H](CCC(=O)O)C(=O)N[C@H](C(=O)N[C@@H](CC(=O)O)C(=O)NCCNC(=O)CCCCCN1C=CC(=Cc2sc3ccccc3[n+]2C)c2ccccc21)C(C)C [Substrate No. 19]
caspase-3-positive cell identification ([1]; staurosporine (1 μM) stimulation 1 hour): 10% | caspase-3-positive cell identification ([1]; staurosporine (1 μM) stimulation 2.5 hours): 80% | caspase-3-positive cell identification ([1]; staurosporine (1 μM) stimulation 5 hours): 97% | staurosporine induction required to reliably detect caspase-3-positive cells ([1]; live Jurkat cells, staurosporine 1 μM, substrate 10 μM): One | incubation time after which detection of intracellular caspase-3 activity is possible ([1]; live Jurkat cells, without cell destruction): 15 min | fluorescence response to dsDNA concentration (DNA titration) (calf thymus dsDNA): relatively insensitive to the presence of DNA | fluorescent staining pattern of cells [2]: green fluorescence in cellular nuclei | fluorescence increase over time with caspase-3 and dsDNA (caspase-3): substrate for caspase-3 enzyme

CC(=O)N[C@H](CC(=O)O)C(=O)N[C@H](CCC(=O)O)C(=O)N[C@@H](C(=O)N[C@H](CC(=O)O)C(=O)NCCNC(=O)CCCN1C=CC(=CC=Cc2sc3ccccc3[n+]2C)c2ccccc21)C(C)C [Substrate No. 20]
fluorescence response to dsDNA concentration (DNA titration) (calf thymus dsDNA): relatively insensitive to the presence of DNA

B1: Texas Red-conjugated Annexin V: fluorescent stain (Biotium Inc.) that is used to identify apoptotic cells by staining phosphatidylserine (conjugate, UniProt P08758 2-320, looked up)
Annexin A5: AQVLRGTVTDFPGFDERADAETLRKAMKGLGTDEESILTLLTSRSNAQRQEISAAFKTLFGRDLLDDLKSELTGKFEKLIVALMKPSRLYDAYELKHALKGAGTNEKVLTEIIASRTPEELRAIKQVYEEEYGSSLEDDVVGDTSGYYQRMLVVLLQANRDPDAGIDEAQVEQDAQALFQAGELKWGTDEEKFITIFGTRSVSHLRKVFDKYMTISGFQIEETIDRETSGNLEQLLLAVVKSIRSIPAYLAETLYYAMKGAGTDDHTLIRVMVSRSEIDLFNIRKEFRKNFATSLYSMIKGDTSGDYKKALLLLCGEDD
modifications: Texas Red dye
notes: fluorescent stain (Biotium Inc.) that is used to identify apoptotic cells by staining phosphatidylserine
fluorescent staining pattern of cells (phosphatidylserine (PS)): red fluorescence on a cytoplasmic membrane
